# Laboratory results reported in patent publication US9376418B2, “Substituted pyridine spleen tyrosine kinase (SYK) inhibitors” (Merck Sharp & Dohme Corp., priority 2012, dated 2016).
# Biological target: T1, recombinant human GST-SYK (Homo sapiens, UniProt P43405)
# T1 construct: purchased Carna Biosciences 08-176
# Assay: Homogeneous Time-Resolved Fluorescence (HTRF) assay for the recombinant human Syk enzyme
# Format: biochemical
# Details: HTRF assay, recombinant human GST-SYK; IC50 given as class symbols; read-out: rhSYK Activity
# In short: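 HTRF read-out: Europium-anti-phosphotyrosine antibody (2 nM) plus SA-APC (70 nM) in EDTA-containing buffer quenched the reaction, and signal was read after 30 minutes. Kinase step used […], 250 nM biotinylated peptide, 25 μM ATP, 5 mM Mg, 45′ at room temperature.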
row,SMILES,IC50 [nM]
1,"COC(=O)c1ccc(-c2cc(C)cc(Nc3nccc(C(F)(F)F)n3)c2)cn1 [Example 2.65, methyl 5-(3-methyl-5-{[4-(trifluoromethyl)pyrimidin-2-yl]amino}phenyl)pyridine-2-carboxylate]",100 to 1000
2,"Cc1cc(Nc2nccc(C(F)(F)F)n2)cc(-c2ccc(C(=O)NC3CC3)nc2)c1 [Example 2.71, N-cyclopropyl-5-(3-methyl-5-{[4-(trifluoromethyl)pyrimidin-2-yl]amino}phenyl)pyridine-2-carboxamide]",100 to 1000
3,"Cc1cc(Nc2nccc(C(F)(F)F)n2)cc(-c2ccc(C(C)(O)C(F)(F)F)nc2)c1 (stereo not shown) [Example 2.76, 1,1,1-trifluoro-2-[5-(3-methyl-5-{[4-(trifluoromethyl)pyrimidin-2-yl]amino}phenyl)pyridin-2-yl]propan-2-ol]",100 to 1000
4,"CCOC(=O)CCc1ccc(-c2cccc(Nc3nccc(C(F)(F)F)n3)c2)cn1 [Example 2.77, ethyl 3-[5-(3-{[4-(trifluoromethyl)pyrimidin-2-yl]amino}phenyl)pyridin-2-yl]propanoate]",100 to 1000
5,"CCOC(=O)CCc1ccc(-c2cc(C)cc(Nc3nccc(C)n3)c2)cn1 [Example 2.87, ethyl 3-(5-{3-methyl-5-[(4-methylpyrimidin-2-yl)amino]phenyl}pyridin-2-yl)propanoate]",100 to 1000
6,"CCOC(=O)CCc1cncc(-c2cc(C)cc(Nc3nccc(C)n3)c2)c1 [Example 2.88, ethyl 3-(5-{3-methyl-5-[(4-methylpyrimidin-2-yl)amino]phenyl}pyridin-3-yl)propanoate]",100 to 1000
7,"Cc1cc(Nc2nccc(C)n2)cc(-c2cncc(CCC(=O)O)c2)c1 [Example 2.90, 3-(5-{3-methyl-5-[(4-methylpyrimidin-2-yl)amino]phenyl}pyridin-3-yl)propanoic acid]",100 to 1000
8,"Cc1cc(Nc2nccc(C3CC3)n2)cc(-c2cncc(CCC(=O)O)c2)c1 [Example 2.102, 3-(5-{3-[(4-cyclopropylpyrimidin-2-yl)amino]-5-methylphenyl}pyridin-3-yl)propanoic acid]",< 100
9,"CCOC(=O)CCc1ccc(-c2cc(C)cc(Nc3nccc(C4CC4)n3)c2)cn1 [Example 2.103, ethyl 3-(5-{3-[(4-cyclopropylpyrimidin-2-yl)amino]-5-methylphenyl}pyridin-2-yl)propanoate]",< 100
10,"Cc1cc(Nc2nccc(C3CC3)n2)cc(-c2ccc(N[C@H]3CC[C@H](C(=O)O)CC3)nc2)c1 [Example 2.104, trans-4-[(5-{3-[(4-cyclopropylpyrimidin-2-yl)amino]-5-methylphenyl}pyridin-2-yl)amino]cyclohexanecarboxylic acid]",< 100
11,"COc1ccnc(Nc2cc(C)cc(-c3ccc(N[C@H]4CC[C@H](C(=O)O)CC4)nc3)c2)n1 [Example 2.105, trans-4-[(5-{3-[(4-methoxypyrimidin-2-yl)amino]-5-methylphenyl}pyridin-2-yl)amino]cyclohexanecarboxylic acid]",< 100
12,"Cc1cc(Nc2nccc(C)n2)cc(-c2ccc(N[C@H]3CC[C@H](C(=O)O)CC3)nc2)c1 [Example 2.106, trans-4-[(5-{3-methyl-5-[(4-methylpyrimidin-2-yl)amino]phenyl}pyridin-2-yl)amino]cyclohexanecarboxylic acid]",< 100
13,"Cc1ccnc(Nc2cccc(-c3ccc(N[C@H]4CC[C@H](C(=O)O)CC4)nc3)c2)n1 [Example 2.107, trans-4-[(5-{3-[(4-methylpyrimidin-2-yl)amino]phenyl}pyridin-2-yl)amino]cyclohexanecarboxylic acid]",< 100
14,"Cc1cc(Nc2nccc(C(C)C)n2)cc(-c2ccc(N[C@H]3CC[C@H](C(=O)O)CC3)nc2)c1 [Example 2.108, trans-4-{[5-(3-methyl-5-{[4-(1-methylethyl)pyrimidin-2-yl]amino}phenyl)pyridin-2-yl]amino}cyclohexanecarboxylic acid]",< 100
15,"Cc1cc(Nc2nccc(C(F)(F)F)n2)cc(-c2ccc(NC(=O)CC#N)nc2)c1 [Example 2.109, 2-cyano-N-[5-(3-methyl-5-{[4-(trifluoromethyl)pyrimidin-2-yl]amino}phenyl)pyridin-2-yl]acetamide]",< 100
16,"Cc1cc(Nc2nccc(C(F)(F)F)n2)cc(-c2ccc(OC3CCC(C(=O)O)CC3)nc2)c1 (stereo not shown) [Example 2.110, 4-{[5-(3-methyl-5-{[4-(trifluoromethyl)pyrimidin-2-yl]amino}phenyl)pyridin-2-yl]oxy}cyclohexanecarboxylic acid]",< 100
17,"Cc1cc(Nc2nccc(C(F)(F)F)n2)cc(-c2ccc(OC3CCC(C(=O)O)CC3)nc2)c1 (stereo not shown) [Example 2.111, 4-{[5-(3-methyl-5-{[4-(trifluoromethyl)pyrimidin-2-yl]amino}phenyl)pyridin-2-yl]oxy}cyclohexanecarboxylic acid]",< 100
18,"Cc1cc(Nc2nccc(C(F)(F)F)n2)cc(-c2ccc(Oc3ccc(C(=O)O)cc3)nc2)c1 [Example 2.112, 4-{[5-(3-methyl-5-{[4-(trifluoromethyl)pyrimidin-2-yl]amino}phenyl)pyridin-2-yl]oxy}benzoic acid]",< 100
19,"CC(=O)c1ccc(-c2cc(C)cc(Nc3nccc(C(F)(F)F)n3)c2)cn1 [Example 2.113, 1-[5-(3-methyl-5-{[4-(trifluoromethyl)pyrimidin-2-yl]amino}phenyl)pyridin-2-yl]ethanone]",100 to 1000
20,"Cc1cc(Nc2nccc(C(F)(F)F)n2)cc(-c2ccc(C(C)(O)C(F)(F)F)nc2)c1 (stereo not shown) [Example 2.115, 1,1,1-trifluoro-2-[5-(3-methyl-5-{[4-(trifluoromethyl)pyrimidin-2-yl]amino}phenyl)pyridin-2-yl]propan-2-ol]",100 to 1000

# Other lines, results leading:
row,IC50 [nM],SMILES
1,< 100,"Cc1cc(Nc2nccc(C(F)(F)F)n2)cc(-c2ccc(CN)nc2)c1 [Example 2.63, N-{3-[6-(aminomethyl)pyridin-3-yl]-5-methylphenyl}-4-(trifluoromethyl)pyrimidin-2-amine]"
2,< 100,"Cc1cc(Nc2nccc(C(F)(F)F)n2)cc(-c2cncc(CO)c2)c1 [Example 2.66, [5-(3-methyl-5-{[4-(trifluoromethyl)pyrimidin-2-yl]amino}phenyl)pyridin-3-yl]methanol]"
3,< 100,"CCOC(=O)c1cncc(-c2cc(C)cc(Nc3nccc(C(F)(F)F)n3)c2)c1 [Example 2.68, ethyl 5-(3-methyl-5-{[4-(trifluoromethyl)pyrimidin-2-yl]amino}phenyl)pyridine-3-carboxylate]"
4,< 100,"Cc1cc(Nc2nccc(C(F)(F)F)n2)cc(-c2cncc(C(=O)O)c2)c1 [Example 2.69, 5-(3-methyl-5-{[4-(trifluoromethyl)pyrimidin-2-yl]amino}phenyl)pyridine-3-carboxylic acid]"
5,< 100,"Cc1cc(Nc2nccc(C(F)(F)F)n2)cc(-c2ccc(N3CCCNC(=O)C3)nc2)c1 [Example 2.70, 4-[5-(3-methyl-5-{[4-(trifluoromethyl)pyrimidin-2-yl]amino}phenyl)pyridin-2-yl]-1,4-diazepan-2-one]"
6,< 100,"Cc1cc(Nc2nccc(C(F)(F)F)n2)cc(-c2cnc(N(C)C)c(C(=O)O)c2)c1 [Example 2.72, 2-(dimethylamino)-5-(3-methyl-5-{[4-(trifluoromethyl)pyrimidin-2-yl]amino}phenyl)pyridine-3-carboxylic acid]"
7,< 100,"O=C(O)c1cncc(-c2cccc(Nc3nccc(C(F)(F)F)n3)c2)c1 [Example 2.73, 5-(3-{[4-(trifluoromethyl)pyrimidin-2-yl]amino}phenyl)pyridine-3-carboxylic acid]"
8,< 100,"CNc1ncc(-c2cc(C)cc(Nc3nccc(C(F)(F)F)n3)c2)cc1C(=O)O [Example 2.74, 2-(methylamino)-5-(3-methyl-5-{[4-(trifluoromethyl)pyrimidin-2-yl]amino}phenyl)pyridine-3-carboxylic acid]"
9,< 100,"Cc1cc(Nc2nccc(C(F)(F)F)n2)cc(-c2cncc(C(C)(O)C(F)(F)F)c2)c1 (stereo not shown) [Example 2.75, 1,1,1-trifluoro-2-[5-(3-methyl-5-{[4-(trifluoromethyl)pyrimidin-2-yl]amino}phenyl)pyridin-3-yl]propan-2-ol]"
10,< 100,"O=C(O)CCc1cncc(-c2cccc(Nc3nccc(C(F)(F)F)n3)c2)c1 [Example 2.79, 3-[5-(3-{[4-(trifluoromethyl)pyrimidin-2-yl]amino}phenyl)pyridin-3-yl]propanoic acid]"
11,< 100,"O=C(O)CCc1ccc(-c2cccc(Nc3nccc(C(F)(F)F)n3)c2)cn1 [Example 2.82, 3-[5-(3-{[4-(trifluoromethyl)pyrimidin-2-yl]amino}phenyl)pyridin-2-yl]propanoic acid]"
12,< 100,"COc1ccnc(Nc2cc(C)cc(-c3ccc(CCC(=O)O)nc3)c2)n1 [Example 2.83, 3-(5-{3-[(4-methoxypyrimidin-2-yl)amino]-5-methylphenyl}pyridin-2-yl)propanoic acid]"
13,< 100,"COc1ccnc(Nc2cc(C)cc(-c3cncc(CCC(=O)O)c3)c2)n1 [Example 2.84, 3-(5-{3-[(4-methoxypyrimidin-2-yl)amino]-5-methylphenyl}pyridin-3-yl)propanoic acid]"
14,< 100,"Cc1cc(Nc2nccc(C(F)(F)F)n2)cc(-c2cncc(CCC(=O)O)c2)c1 [Example 2.86, 3-[5-(3-methyl-5-{[4-(trifluoromethyl)pyrimidin-2-yl]amino}phenyl)pyridin-3-yl]propanoic acid]"
15,< 100,"Cc1cc(Nc2nccc(C)n2)cc(-c2ccc(CCC(=O)O)nc2)c1 [Example 2.89, 3-(5-{3-methyl-5-[(4-methylpyrimidin-2-yl)amino]phenyl}pyridin-2-yl)propanoic acid]"
16,< 100,CCOC(=O)CCc1cncc(-c2cc(C)cc(Nc3nccc(C4CC4)n3)c2)c1 [Example 2.100]
17,< 100,"Cc1cc(Nc2nccc(C3CC3)n2)cc(-c2ccc(CCC(=O)O)nc2)c1 [Example 2.101, 3-(5-{3-[(4-cyclopropylpyrimidin-2-yl)amino]-5-methylphenyl}pyridin-2-yl)propanoic acid]"
